According to patent US20090280096A1, “PANCREATIC ENDOCRINE PROGENITOR CELLS DERIVED FROM PLURIPOTENT STEM CELLS” (priority 2008, published 2009):

B1: BMP4: growth factor BMP-4 (R&D Systems) added to SFD medium days 4-6 (protein, UniProt P12644 293-408, looked up)
Bone morphogenetic protein 4: SPKHHSQRARKKNKNCRRHSLYVDFSDVGWNDWIVAPPGYQAFYCHGDCPFPLADHLNSTNHAIVQTLVNSVNSSIPKACCVPTELSAISMLYLDEYDKVVLKNYQEMVVEGCGCR

What was measured:
[1] = test system: pancreatic EBs induced by Pdx1 and Ngn3 (Tet-pdx1/ngn3 ES cells); experiment: C-peptide secretion assay (RIA) of EBs stimulated with secretagogues; format: cell-based, mouse; conditions: floating EBs with Dox, SFD without N2 and RA, stimulated 1 hour in HKRB buffer; for stimulation of C-peptide secretion: KCl 30 mM, Forskolin 10 μM, IBMX 0.5 mM; for response of C-peptide secretion to stimulation: glucose 20 mM, tolbutamide 100 μM
Protocol: Tet-pdx1/ngn3 ES cells were cultured in SFD conditions. Pdx1 and Ngn3 expression was induced with (Dox+) or without (Dox−) Dox after day 4, and cells were harvested at the indicated time points. (A) CXCR4/c-kit^−/− or CXCR4/c-kit^+/+ cells were sorted in day 4 EBs by using a FACS sorter. Sorted cells were reaggregated and replated at day 6 on gelatin coated plates. EBs were harvested at day 9. Ins1 mRNA levels were quantified by real time PCR and normalized to the 18S mRNA levels. (B) N2 media was added to or omitted from the SFD media for days 0-14. B27, with or without retinoic acid (RA), was combined in SFD for days 0-4 and for day 4-14 (also +/−N2). Ins1 mRNA levels were quantified by real time PCR and normalized to the 18S mRNA levels. (C) Tet-pdx1/ngn3 ES cells were cultured in SFD condition without N2 and RA for 18 days. Cytoplasmic insulin was stained and analyzed by FACS. (D) Floating EBs were cultured in SFD without N2 and RA for 18 days, with or without Dox. EBs were incubated in SFD without N2 and RA for 24 hours and supernatants were harvested. C-peptide, glucagon and somatostatin were measured by RIA or EIA. (E) Floating EBs were cultured in SFD without N2 and RA for 19 days and then were unstimulated or stimulated with KCl (3 or 30 mM), glucose (20 mM), tolbutaminde (100 μM), Forskolin (10 μM) or IBMX (0.5 mM) in HKRB buffer for 1 hour. Supernatants were harvested and C-peptide was measured by RIA.
After culturing EBs for 17-18 days in SFD conditions without N2 and RA with or without Dox (1 μg/ml) as described above, the medium was changed to fresh SFD media containing 2 mM glutamine. The EBs were then incubated for 24 hours as indicated, and the conditioned medium was collected for assay. Concentrations of glucagon and somatostatin in the conditioned medium were measured using enzyme immunoassays (EIAs) specific to glucagon (Yanaihara) or somatostatin (Phoenix Pharmaceuticals) according the manufacturer's instructions. C-peptide was measured by radioimmunoassay (RIA) specific to C-peptide (Linco). For C-peptide secretion assay, day 18 EBs were washed with media were incubated in HEPES-balanced Krebs-Ringer bicarbonate (HKRB) buffer (20 mM HEPES, 103 mM NaCl, 4.8 mM KCl, 0.5 mM CaCl2, 1.2 mM MgSO4, 1.2 mM KH2PO4, 25 mM NaHCO3, 2 mM glucose, pH 7.4) with or without stimulations for 1 hour. C-peptide in the supernatant was measured by a specific RIA. Total protein amounts of EBs in each sample were evaluated by BCA assay and secretion levels for C-peptide, glucagons and somatostatin were adjusted by protein amount.
To evaluate pancreatic hormone secretion, pancreatic EBs were cultured in SFD without N2 and RA for 16-18 days and then EBs were incubated in fresh SFD media for 24 hours. The secretion of pancreatic hormones such as C-peptide, glucagon and somatostatin in the supernatant was evaluated by RIA or EIA. C-peptide, somatostatin and glucagons were not detected in EBs without Dox stimulation. […] Stimulation of C-peptide secretion by treating endocrine progenitor cells with different agents for one hour was also evaluated (FIG. 6E). C-peptide secretion increased around five fold by the addition of 30 mM potassium chloride (KCl). Forskolin and IBMX, which increase intracellular cAMP, also stimulated C-peptide secretion around 2 fold and 3 fold, respectively. No response to glucose or the inhibitors of KATP channel, glibenclamide and tolbutamide, was detected.

[2] = test system: Ins1 mRNA in Tet-pdx1/ngn3 Ainv ES cell-derived EBs; experiment: Ins1 mRNA by real time PCR in EBs cultured in SFD conditions; format: cell-based, mouse; conditions: BMP4 (50 ng/ml) for days 4-6 with Dox, EBs harvested at day 9
Protocol: Tet-pdx1/ngn3 ES cells were cultured in SFD conditions. Pdx1 and Ngn3 expression was induced with (Dox+) or without (Dox−) Dox after day 4 and cells were harvested at the indicated time points. (A, B) Ins1 mRNA levels were quantified by a real time PCR and normalized to the 18S mRNA levels. A. Day 4 EBs were trypsinized and reaggregated with (closed circles) or without BMP4 (open squares) for days 4-6. EBs were harvested at days 6 and 9. B. At day 6, EBs were replated on gelatin coated dishes and floating EBs were transferred to low-cluster dishes at day 7. Attached monolayer EBs (open bars) and floating EBs (closed bars) were harvested at day 9. (C, D) Floating EBs were cultured in SFD conditions with (closed circles) or without (open squares) Dox. Ins1 (C) or Ins2 (D) mRNA levels were quantified by a real time PCR and normalized to the 18S mRNA levels.
For a real time PCR, commercially available assay mixes (Applied Biosystems) for Ins1 (Mm01259683_g1), Ins2 (Mm0731595_gH) and 18S (Hs99999901_s1) were used to quantify mRNA levels, and PCR was performed using a Prism 7700 Sequence Detector (Applied Biosystems). […]
Tet-pdx1/ngn3 Ainv ES cells were cultured in SFD for 2 days and then activin was added for days 2-4 to induce endoderm differentiation. […] Without Dox treatment, Ins1 mRNA was not detected at day 6 or day 9. […]

| Molecule | stimulation of C-peptide secretion [1] | response of C-peptide secretion to stimulation [1] | other results |
| --- | --- | --- | --- |
| C=C[C@@]1(C)CC(=O)[C@]2(O)[C@@]3(C)[C@@H](O)CCC(C)(C)[C@@H]3[C@H](O)[C@H](OC(C)=O)[C@@]2(C)O1 [Forskolin] | around 2 fold | – | – |
| CC(C)Cn1c(=O)n(C)c(=O)c2[nH]cnc21 [IBMX] | ~3 fold | – | – |
| [Cl-].[K+] [KCl, potassium chloride] | around five | – | – |
| COc1ccc(Cl)cc1C(=O)NCCc1ccc(S(=O)(=O)NC(=O)NC2CCCCC2)cc1 [glibenclamide] | – | No response | – |
| CCCCNC(=O)NS(=O)(=O)c1ccc(C)cc1 [tolbutamide] | – | No response | – |
| B1 | – | – | Ins1 mRNA level normalized to 18S mRNA [2]: 3.1 % of βTC6 |
